Data reported in patent publication US20200405868A1, “GEL-FORMING POLYPEPTIDES” (priority 2018, published 2020).
Like-named read-outs stand apart in the source and are kept apart here. Where a SMILES comes first, the peptide text is derived from it. [ ]: non-standard residue; d: D form. The star is where a group is joined. dPhe(4-Cl) = N[C@H](Cc1ccc(Cl)cc1)C(=O)O; d2Nal = N[C@H](Cc1ccc2ccccc2c1)C(=O)O; Palmitoyl = CCCCCCCCCCCCCCCC(=O)*; dCit = NC(=O)NCCC[C@@H](N)C(=O)O; d3Pal = N[C@H](Cc1cccnc1)C(=O)O; AEEA = NCCOCCOCC(=O)O

Key:
[1] = Compound gel-forming ability in water (visual inspection, tube tapping assay, tilted tube assay); format: physicochemical; settings: for gel formation in aqueous solution, 11% / propensity to form gels, chimeric or mutated polypeptides, 11%: 11% w/w;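 as to all read-outs here: peptides mixed with de-ionized water at about 22-25 °C, judged after 20 min by eye plus tube tapping (10 taps, moves counted) and 90° tilt mobility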
[2] = target: melanocortin receptor 1 (MC1R) (Homo sapiens, UniProt Q01726); assay: MC1R cAMP assay (Discoverx), agonistic; format: cell-based
melanocortin receptor 1 (MC1R), sequence (Q01726 whole entry): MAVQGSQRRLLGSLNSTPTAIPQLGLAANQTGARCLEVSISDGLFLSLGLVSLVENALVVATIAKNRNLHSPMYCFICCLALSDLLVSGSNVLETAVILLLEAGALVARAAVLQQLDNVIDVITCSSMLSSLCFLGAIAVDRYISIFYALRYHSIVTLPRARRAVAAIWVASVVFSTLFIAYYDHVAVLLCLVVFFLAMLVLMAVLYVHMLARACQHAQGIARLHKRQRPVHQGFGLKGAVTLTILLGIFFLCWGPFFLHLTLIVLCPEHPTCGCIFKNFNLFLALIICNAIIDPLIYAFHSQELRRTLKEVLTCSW
Experimental: (§1) The agonistic activities toward MC1R, MC4R, CRHR2, PTHR1, and OPRK1 were assyed with an MC1R cAMP assay, an MC4R cAMP assay, a CRHR2 cAMP assay, a PTHR1 cAMP assay and an OPRK1 cAMP assay from Discoverx Inc. (Fremont, Calif.), respectively. The antagonistic activities toward bradykinin receptor 2 (BDKRB2) and GnRH receptor (GnRHR or LHRHR) were assayed with a BDKRB2 arrestin assay and a GnRHR calcium flux assay from Discoverx, respectively.
(§2) For the analysis of Gs-coupled cAMP production, cAMP Hunter cell lines were expanded from freezer stocks, and cells were seeded in a total volume of 20 μL into white walled, 384-well microplates and incubated at 37 C for the appropriate time prior to testing. The cAMP modulation was determined using the DiscoverX HitHunter cAMP XS+ assay. For agonistic activity determination, cells were incubated with sample to induce response. Media was aspirated from cells and replaced with 15 μL 2:1 HBSS/10 mM Hepes: cAMP XS+ Ab reagent. Intermediate dilution of sample stocks was performed to generate 4× sample in assay buffer, and 5 μL of 4× sample was added to cells and incubated at 37 C or room temperature for 30 or 60 minutes. Vehicle concentration was 1%. The compound activity was analyzed using a CBIS data analysis suite (ChemInnovation, CA). For Gs-coupled agonistic assays, percentage activity is calculated using the following formula: % Activity=100%×(mean RLU of test sample−mean RLU of vehicle control)/(mean RLU of MAX control−mean RLU of vehicle control).

[3] = target: T1, GnRH receptor (GnRHR or LHRHR) (Homo sapiens, UniProt P30968); assay: GnRHR calcium flux assay (Discoverx), antagonistic; format: cell-based; settings: for IC50: LHRH-stimulated
T1 sequence (P30968 1-328): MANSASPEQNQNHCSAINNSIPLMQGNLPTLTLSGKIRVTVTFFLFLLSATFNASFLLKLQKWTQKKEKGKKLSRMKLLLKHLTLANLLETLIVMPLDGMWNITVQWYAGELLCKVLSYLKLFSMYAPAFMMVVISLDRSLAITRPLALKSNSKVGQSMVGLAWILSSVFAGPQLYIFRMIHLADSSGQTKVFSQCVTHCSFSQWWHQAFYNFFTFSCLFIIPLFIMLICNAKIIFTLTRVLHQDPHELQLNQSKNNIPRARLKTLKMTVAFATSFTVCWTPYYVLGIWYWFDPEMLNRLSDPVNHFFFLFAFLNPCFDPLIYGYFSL
From the text: To study the bioactivities of conjugated and mutated peptides, we employed in vitro receptor-activation assays with cultured cells expressing recombinant melanocortin receptor 1 (MC1R), melanocortin receptor 4 (MC4R), CRH receptor 2 (CRHR2), PTH receptor 1 (PTHR1), or kappa opioid receptor (OPRK1). The agonistic activities toward MC1R, MC4R, CRHR2, PTHR1, and OPRK1 were assyed with an MC1R cAMP assay, an MC4R cAMP assay, a CRHR2 cAMP assay, a PTHR1 cAMP assay and an OPRK1 cAMP assay from Discoverx Inc. (Fremont, Calif.), respectively. The antagonistic activities toward bradykinin receptor 2 (BDKRB2) and GnRH receptor (GnRHR or LHRHR) were assayed with a BDKRB2 arrestin assay and a GnRHR calcium flux assay from Discoverx, respectively.
For the analysis of calcium flux, cell lines were expanded from freezer stocks and seeded in a total volume of 20 μL into black-walled, clear-bottom, Poly-D-lysine coated 384-well microplates and incubated at 37 C for the appropriate time prior to testing. Assays were performed in 1× Dye Loading Buffer consisting of 1× Dye, 1× Additive A and 2.5 mM Probenecid in HBSS/20 mM Hepes. Cells were loaded with dye prior to testing. Media was aspirated from cells and replaced with 20 μL Dye Loading Buffer. Cells were incubated for 30-60 minutes at 37 C. For agonist determination, cells were incubated with sample to induce response. After dye loading, cells were removed from the incubator and 10 μL HBSS/20 mM Hepes was added. Vehicle was included in the buffer when performing agonist dose curves to define the EC80 for antagonist assays. Cells were incubated for 30 minutes at room temperature in the dark to equilibrate plate temperature. Intermediate dilution of sample stocks was performed to generate 4× sample in assay buffer. Compound agonist activity was measured on a FLIPR Tetra (MDS), and calcium mobilization was monitored for 2 minutes and 10 μL 4× sample in HBSS/20 mM Hepes was added to the cells 5 seconds into the assay.
For antagonist determination, cells were pre-incubated with sample followed by agonist challenge at the EC80 concentration. Intermediate dilution of sample stocks was performed to generate 3× sample in assay buffer. After dye loading, cells were removed from the incubator and 10 μL 3× sample was added. Cells were incubated for 30 minutes at room temperature in the dark to equilibrate plate temperature. Vehicle concentration was 1%. Compound antagonistic activity was measured on a FLIPR Tetra (MDS), and calcium mobilization was monitored for 2 minutes and 10 μL EC80 agonist in HBSS/20 mM Hepes was added to the cells 5 seconds into the assay. The compound activity was analyzed using a CBIS data analysis suite (ChemInnovation, CA), and percentage activity is calculated using the following formula: % Activity=100%×(mean RFU of test sample−mean RFU of vehicle control)/(mean MAX RFU control ligand−mean RFU of vehicle control). For antagonist assays, percentage inhibition is calculated using the following formula: % Inhibition=100%×(1−(mean RFU of test sample−mean RFU of vehicle control)/(mean RFU of EC80 control−mean RFU of vehicle control)).

CRH receptor 2 (CRHR2) = target: T2, CRH receptor 2 (CRHR2) (Homo sapiens, UniProt Q13324); assay: CRHR2 cAMP assay (Discoverx), agonistic; format: cell-based
T2 sequence (Q13324 1-411): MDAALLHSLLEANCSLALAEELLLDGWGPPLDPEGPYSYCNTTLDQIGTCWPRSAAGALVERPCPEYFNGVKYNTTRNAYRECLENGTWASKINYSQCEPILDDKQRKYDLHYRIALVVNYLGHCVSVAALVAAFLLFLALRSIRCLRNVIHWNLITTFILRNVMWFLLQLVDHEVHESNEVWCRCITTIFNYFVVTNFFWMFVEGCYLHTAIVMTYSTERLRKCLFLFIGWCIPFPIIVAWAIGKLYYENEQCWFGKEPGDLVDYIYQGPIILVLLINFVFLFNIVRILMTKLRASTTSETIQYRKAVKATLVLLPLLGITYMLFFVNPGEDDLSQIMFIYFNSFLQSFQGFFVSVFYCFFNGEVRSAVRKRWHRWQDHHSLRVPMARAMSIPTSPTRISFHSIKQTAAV
Experimental: as §1, §2

For `CCCCCCCCCCCCCCCC(=O)N[C@@H](Cc1c[nH]cn1)C(=O)N[C@@H](CO)C(=O)N[C@@H](Cc1ccc(O)cc1)C(=O)N[C@@H](CO)C(=O)N[C@@H](CCSC)C(=O)N[C@@H](CCC(=O)O)C(=O)N[C@@H](Cc1c[nH]cn1)C(=O)N[C@@H](Cc1ccccc1)C(=O)N[C@@H](CCCNC(=N)N)C(=O)N[C@@H](Cc1c[nH]c2ccccc12)C(=O)NCC(=O)N[C@@H](CCCCN)C(=O)N1CCC[C@H]1C(=O)N[C@H](C(=O)NCC(=O)N[C@@H](CCCCN)C(=O)N[C@@H](CCCCN)C(=O)N[C@@H](CCCNC(=N)N)C(=O)N[C@@H](CCCNC(=N)N)C(=O)N1CCC[C@H]1C(=O)N[C@H](C(=O)N[C@@H](CCCCN)C(=O)N[C@H](C(=O)N[C@@H](Cc1ccc(O)cc1)C(=O)N1CCC[C@H]1C(=O)O)C(C)C)C(C)C)C(C)C` [SEQ ID NO:226], the “gel formation in aqueous solution, 11%” value ([1]; Table 3) was “SS (SS for semisolid gel)”, the “propensity to form gels, chimeric or mutated polypeptides, 11%” value (“propensity to form gels … 11%” for short) ([1]; Table 5) was “SS (An ability to form semisolid gel is represented by an SS)” and the EC50 [2] was “nanomolar”. For the same compound, the “Max Activity % of positive control” value [2] was 115 % of positive control.
For `CCCCCCCCCCCCCCCC(=O)N[C@@H](Cc1c[nH]cn1)C(=O)N[C@@H](CO)C(=O)N[C@@H](Cc1ccc(O)cc1)C(=O)N[C@H](Cc1ccc2ccccc2c1)C(=O)N[C@H](Cc1ccc(Cl)cc1)C(=O)N[C@H](Cc1cccnc1)C(=O)N[C@@H](CO)C(=O)N[C@@H](Cc1ccc(O)cc1)C(=O)N[C@H](CCCNC(N)=O)C(=O)N[C@@H](CC(C)C)C(=O)N[C@@H](CCCNC(=N)N)C(=O)N1CCC[C@H]1C(=O)N[C@H](C)C(N)=O` [SEQ ID NO:203, Pal-HSY-(D-Nal)-(D-Cpa)-(D-Pal)-SY-(D-Cit)-LRP-(D-Ala)-NH2] (Palmitoyl-HSY[d2Nal][dPhe(4-Cl)][d3Pal]SY[dCit]LRP[dA]-NH2), the “Max Activity % of positive control” value [3] was 109 % of positive control and the IC50 [3] was less than 510 pM.
With `CCCCCCCCCCCCCCCC(=O)N[C@@H](CCCCN)C(=O)N[C@H](C(=O)N[C@@H](CCC(N)=O)C(=O)N[C@@H](CCCCN)C(=O)N[C@@H](CC(C)C)C(=O)N[C@@H](CO)C(=O)N[C@@H](C)C(=O)N1CCC[C@H]1C(=O)N[C@H](C(=O)N[C@@H](CC(=O)O)C(=O)N1CCC[C@H]1C(=O)N[C@@H](CO)C(=O)N[C@@H](CO)C(=O)N1CCC[C@H]1C(=O)N[C@@H](Cc1c[nH]cn1)C(=O)N[C@@H](CO)C(=O)N[C@@H](Cc1ccc(O)cc1)C(=O)NCCOCCOCC(=O)N[C@H](Cc1ccc2ccccc2c1)C(=O)N[C@H](Cc1ccc(Cl)cc1)C(=O)N[C@H](Cc1cccnc1)C(=O)N[C@@H](CO)C(=O)N[C@@H](Cc1ccc(O)cc1)C(=O)N[C@H](CCCNC(N)=O)C(=O)N[C@@H](CC(C)C)C(=O)N[C@@H](CCCNC(=N)N)C(=O)N1CCC[C@H]1C(=O)N[C@H](C)C(N)=O)C(C)C)C(C)C` [SEQ ID NO:202] the “gel formation at 6% w/w” value ([1]; 6% w/w in water) was “semisolid gel”, the “gel formation at 11% w/w” value ([1]; 11% w/w in water) was “semisolid gel” and the “gel formation in aqueous solution, 6%” value ([1]; Table 3, 6% w/w) was “SS (SS for semisolid gel)”. For the same compound, the “gel formation in aqueous solution, 11%” value ([1]; Table 3) was “SS (SS for semisolid gel)”, the “propensity to form gels, chimeric or mutated polypeptides, 3%” value ([1]; Table 5, 3% w/w) was “AS/IS” and the “propensity to form gels, chimeric or mutated polypeptides, 6%” value ([1]; Table 5, 6% w/w) was “SS (An ability to form semisolid gel is represented by an SS)”. For the same compound, the “propensity to form gels … 11%” value ([1]; Table 5) was “SS (An ability to form semisolid gel is represented by an SS)” and the “Max Activity % of positive control” value [3] was 135 % of positive control.
For “Palmitoyl-SSPHSY[AEEA]IVLSLDVPIGLLQILLEQARARAAREQATTNARILARVGHC-NH2 [SEQ ID NO:230]”, the “Max Activity % of positive control” value (CRH receptor 2 (CRHR2)) was 100 % of positive control, the “gel formation at 20% w/w” value ([1]; 20% w/w in water) was “semisolid or liquid gel” and the “gel formation in aqueous solution, 11%” value ([1]; Table 3) was “AS/IS (AS/IS for aqueous solution or insoluble)”. For the same compound, the “gel formation in aqueous solution, 20%” value ([1]; Table 3, 20% w/w) was “SS (SS for semisolid gel)”, the “propensity to form gels … 11%” value ([1]; Table 5) was “AS/IS” and the “propensity to form gels, chimeric or mutated polypeptides, 20%” value ([1]; Table 5, 20% w/w) was “SS (An ability to form semisolid gel is represented by an SS)”.
In the case of `CC(=O)N[C@H](Cc1ccc2ccccc2c1)C(=O)N[C@H](Cc1ccc(Cl)cc1)C(=O)N[C@H](Cc1cccnc1)C(=O)N[C@@H](CO)C(=O)N[C@@H](Cc1ccc(O)cc1)C(=O)N[C@H](CCCNC(N)=O)C(=O)N[C@@H](CC(C)C)C(=O)N[C@@H](CCCNC(=N)N)C(=O)N1CCC[C@H]1C(=O)N[C@H](C)C(N)=O` [Cetrorelix, reference compound] (Ac-[d2Nal][dPhe(4-Cl)][d3Pal]SY[dCit]LRP[dA]-NH2), the “Max Activity % of positive control” value [3] is reported as 91.4 % of positive control and the IC50 [3] is reported as 80 pM.
With `CCCCCCCCCCCCCCCC(=O)N[C@@H](Cc1c[nH]cn1)C(=O)N[C@@H](CO)C(=O)N[C@@H](Cc1ccc(O)cc1)C(=O)N[C@@H](CO)C(=O)N[C@@H](CCCC)C(=O)N[C@@H](CCC(=O)O)C(=O)N[C@@H](Cc1c[nH]cn1)C(=O)N[C@H](Cc1ccccc1)C(=O)N[C@@H](CCCNC(=N)N)C(=O)N[C@@H](Cc1c[nH]c2ccccc12)C(=O)NCC(=O)N[C@@H](CCCCN)C(=O)N1CCC[C@H]1C(=O)N[C@H](C(N)=O)C(C)C` [SEQ ID NO:224, Pal-HSYS-Nle-EH-(D-Phe)-RWGKPV-NH2] the EC50 [2] was “subnanomolar”, the “Max Activity % of positive control” value [2] was 120 % of positive control and the EC50 ([2]; read-out: EC50) was less than 50 pM.
